Reference: patent publication US8058284B2, “[4-(6-halo-7-substituted-2,4-dioxo-1,4-dihydro-2H-quinazolin-3-yl)-phenyl]-5-chloro-thiophen-2-yl-sulfonylureas and forms and methods related thereto” (Portola Pharmaceuticals, Inc., priority 2005, dated 2011)
Like-named read-outs stand apart in the source and are kept apart here.

Columns and labels:
[1] = target: T1, P2Y12 receptor on platelets (Homo sapiens, UniProt Q9H244); experiment: platelet ADP receptor binding assay (ARB): inhibition of [3H]2-MeS-ADP binding to platelets; settings: apyrase-washed human platelets
T1 construct: endogenous in cells; host or cells: human platelets, apyrase-washed: outdated from hospital blood banks, or fresh
Description: 1. The Ability of Candidate Molecules to Inhibit the Binding of [3H]2-MeS-ADP to the P2Y12 Receptor on Platelets was Determined Using a Radioligand Binding Assay.
Utilizing this assay the potency of inhibition of such compounds with respect to [^3H]2-MeS-ADP binding to whole platelets is determined. Under the conditions described in II (3) below, the binding of [^3H]2-MeS-ADP is solely due to the interaction of this ligand with the P2Y12 receptor, in that all the specific binding measured in this assay is compatible with a P2Y12 antagonist (i.e., the specific binding is reduced to background levels by competition with an excess of P2Y12 antagonist, with no competition of binding when a P2Y1 antagonist is pre-incubated with the platelet preparation). […]
A platelet ADP receptor binding assay (ARB) using the tritiated potent agonist ligand [^3H]2-MeS-ADP (Jantzen, H. M. et al. (1999) Thromb. Hemost. 81:111-117) has been adapted to the 96-well microtiter format. […] Total binding is determined in the absence of test compounds. […] The platelet-bound radioactivity on the filtermats is determined in a scintillation counter (Microbeta 1450, Wallac Inc., Gaithersburg, Md.). Specific binding is determined by subtraction of non-specific binding from total binding, and specific binding in the presence of test compounds is expressed as % of specific binding in the absence of test compound dilutions. […]

[2] = test system: ADP-induced human platelet aggregation (human platelet-rich plasma); experiment: inhibition of ADP-mediated platelet aggregation in platelet-rich plasma (PRP assay); type: cell-based
Description: Platelet-rich plasma (PRP) is prepared by centrifugation of whole blood at 160×g for 20 minutes at room temperature. […] PPP is prepared by centrifugation of the remaining blood sample (after removal of PRP) for 20 minutes at 800×g. This preparation of PRP can subsequently be used for aggregation assays in either a 96-well plate or standard cuvette aggregometry.
J. Clin. Pathol. […] All steps are performed at room temperature. […] The plates are then agitated for 5 min on a microtiter plate shaker and the 5 minute reading is obtained in the plate reader. […] IC50s were derived by non-linear regression analysis.

T1 sequence (Q9H244 whole entry): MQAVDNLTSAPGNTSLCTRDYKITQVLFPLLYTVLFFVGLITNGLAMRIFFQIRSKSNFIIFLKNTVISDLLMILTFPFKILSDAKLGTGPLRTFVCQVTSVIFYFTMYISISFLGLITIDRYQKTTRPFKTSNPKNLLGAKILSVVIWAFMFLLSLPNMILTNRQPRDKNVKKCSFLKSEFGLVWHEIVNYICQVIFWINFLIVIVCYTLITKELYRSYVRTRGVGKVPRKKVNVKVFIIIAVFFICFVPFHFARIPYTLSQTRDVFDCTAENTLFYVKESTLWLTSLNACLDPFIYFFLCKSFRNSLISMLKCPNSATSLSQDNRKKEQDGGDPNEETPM

SMILES | IC50 [1] [µM] | IC50 ([2]; Platelet) [µM] | IC50 [2] [µM]
CNc1cc2[nH]c(=O)n(-c3ccc(NC(=O)NS(=O)(=O)c4ccc(Cl)s4)cc3)c(=O)c2cc1F [Example 2] | < 0.05 | < 10 | 
CNc1cc2[nH]c(=O)n(-c3ccc(NC(=O)NS(=O)(=O)c4ccc(Cl)s4)cc3)c(=O)c2cc1Cl [Example 3, [4-(6-chloro-7-methylamino-2,4-dioxo-1,4-dihydro-2H-quinazolin-3-yl)-phenyl]-5-chloro-thiophen-2-yl-sulfonylurea] | 0.05 to 0.5 |  | 10 to 30
